Test system: rabbits
Assay: APD 24 hours after AMI in rabbits
Format: in vivo, rabbit
Experimental: 24 hours after AMI, APD is markedly shortened.

Compound: COc1ccc2c(c1OC)C[N+]1(Cc3ccc(Cl)cc3)CCc3cc4c(cc3C1C2)OCO4 (stereo not shown) [Compound I13, 7-(4-chlorobenzyl)-5,8,13,13a-tetrahydroberberine chloride]
- effect on APD shortening after AMI: could be cancelled

From US5470852A, “Tetrahydroprotoberberine quaternary ammonium compounds useful in for treating arrhythmia” (priority 1991, dated 1995)
